Source: patent US20100004275A1, “AGENT FOR SUPPRESSING DEVELOPMENT OF TOLERANCE TO NARCOTIC ANALGESICS” (KYOTO UNIVERSITY, priority 2004, published 2010)

Experiments:
[1] = system: V1a receptor knockout mice, V1b receptor knockout mice, and control mice; assay: Tail-flick test, development of tolerance to morphine in V1a/V1b receptor knockout and control mice (Example 1); format: in vivo; conditions: 10 mg/kg s.c. once a day for 15 days, FIG. 1
Method: V1a receptor knockout mice (Neuroscience Letters, 356, pp. 195-198, 2004), V1b receptor knockout mice (J. Clin. Invest., 113, pp. 302-309, 2004), and control mice (body weight: about 30 g) were subcutaneously (s.c.) given with 10 mg/kg of morphine hydrochloride once a day, which was repeated for 15 days. The analgesic effect was evaluated by the tail-flick test on 1st, 5th, 9th, 12th and 15th days after the administration on the basis of the maximal possible effect (% MPE), which represents analgesic intensity and is calculated in accordance with the following equation.
(§1) % MPE=100×[(Measured value after treatment−Measured value before treatment)[…](Cut-off value−Measured value before treatment)]

ddY mice = assay: Tail-flick test, tolerance to morphine analgesic induced by repeated morphine, with V1 receptor antagonist i.c.v. (Example 2); format: in vivo; conditions: male ddY mice; antagonist 0.5, 5 or 10 ng i.c.v. + morphine hydrochloride 10 mg/kg s.c. twice a day for 5 days; 1st, 3rd and 5th days; FIGS. 2 to 4
Method: as §1
Male ddY mice (5- or 6-week old) were intracerebroventricularly (i.c.v.) given with 5 μl of physiological saline or a V1 receptor antagonist (0.5, 5 or 10 ng), and immediately after the administration, the mice were subcutaneously given with 10 mg/kg of morphine hydrochloride, which was repeated twice a day for 5 days to induce tolerance to morphine analgesic. The analgesic effect was evaluated by the tail-flick test on 1st, 3rd and 5th days after the administration on the basis of intensity of analgesic effect using % MPE and AUC (area under the time-reaction curve, Area Under the Curve). As the V1 receptor antagonist, the following three types of antagonists were used.

| Compound | development of tolerance to analgesic effect (% MPE) ([1]; V1a receptor knockout mice) | development of tolerance to analgesic effect (% MPE) ([1]; V1b receptor knockout mice) | development of tolerance to analgesic effect (% MPE) ([1]; control mice) | effect on development of tolerance to morphine (% MPE and AUC) (ddY mice) |
| --- | --- | --- | --- | --- |
| CN1CC[C@]23c4c5ccc(O)c4O[C@H]2[C@@H](O)C=C[C@H]3[C@H]1C5.Cl [morphine, morphine hydrochloride] | tolerance to morphine was developed | remarkable resistance against tolerance to morphine was observed | tolerance to morphine was developed |  |
| [phenylacetyl, O-Me-D-Try, Arg, Lys]-vasopressin amide [PhAcALVP] |  |  |  | had no effect on the tolerance development |
| deamino-Pen, O-Me-Tyr, Arg]-vasopressin [dPenTyr(Me)AVP] |  |  |  | suppressed the development of tolerance |
| [β-mercapto-β,β-cyclopentamethylenepropionyl, O-Me-Tyr, Arg]-vasopressin [d(CH2)5Tyr(Me)AVP] |  |  |  | had no effect on the tolerance development |
